Data on one compound can be found in patent publication US10683273B2, “Compounds as DNA probes, methods and applications thereof” (JAWAHARLAL NEHRU CENTRE FOR ADVANCED SCIENTIFIC RESEARCH, priority 2015, dated 2020).

One experiment relates to P. falciparum. The experiment in a line: IC50 determination in malaria parasites. The format is cell-based, Plasmodium falciparum. The following applies: for IC50: Plasmodium falciparum. The procedure:
P. falciparum strain 3D7 is cultured. Briefly, malaria parasites are cultured in human erythrocytes in T75 flasks with RPMI 1640 (Gibco) supplemented with 10 μg/mL gentamicin (Sigma), 50 μg/mL ampicillin, 0.2% NaHCO3 (Sigma), 0.5% albumax (Invitrogen) and Hypoxanthine (27 mg/L). The culture is maintained under standard conditions (37° C. in 90% nitrogen, 5% CO2, and 5% O2). For synchronization of the parasites, ring-staged parasites are treated with 5% sorbitol at 37° C. for about 5-10 min, followed by washing with pre-warmed incomplete medium twice, and placed back in complete medium. QCy-DT probe (resuspended in Mili-Q water) is added to parasites (25±2 hpi) at a final concentration of 0.5 μM and the parasites are incubated for 30 min at 37° C. Following treatment fluorescence imaging of the parasites is performed using Carl Zeiss AXIO Imager Z1 and the software used for image capturing was AxioVision Rel. 4.8. To determine the IC50 value of QCy-DT against P. falciparum, parasites are synchronized in ring stage (˜12±2 h) and parasitemia is maintained at ˜1%, followed by treatment with 0, 0.5, 1, 2 and 4 μM of QCy-DT at early trophozoite stage (˜20±2 h). After about 40 hours of the QCy-DT treatment, Geimsa stained slides are prepared, and parasitemia is counted. At least six homogenous microscopic fields are counted for each treatment, and each experiment is done in triplicates. The graphs are plotted for the percentage of parasitemia (at 0 time point and at 40 hours after incubation with QCy-DT) against QCy-DT concentration, with mean and standard error.

For a further experiment, the system named is P. falciparum strain 3D7. The experiment in a line: Live fluorescence imaging of malaria parasites. The format is cell-based, Plasmodium falciparum. The settings on record: 0.5 μM, early trophozoite stage, 30 min. The procedure: P. falciparum strain 3D7 is cultured. Briefly, malaria parasites are cultured in human erythrocytes in T75 flasks with RPMI 1640 (Gibco) supplemented with 10 μg/mL gentamicin (Sigma), 50 μg/mL ampicillin, 0.2% NaHCO3 (Sigma), 0.5% albumax (Invitrogen) and Hypoxanthine (27 mg/L). The culture is maintained under standard conditions (37° C. in 90% nitrogen, 5% CO2, and 5% O2). For synchronization of the parasites, ring-staged parasites are treated with 5% sorbitol at 37° C. for about 5-10 min, followed by washing with pre-warmed incomplete medium twice, and placed back in complete medium. QCy-DT probe (resuspended in Mili-Q water) is added to parasites (25±2 hpi) at a final concentration of 0.5 μM and the parasites are incubated for 30 min at 37° C. Following treatment fluorescence imaging of the parasites is performed using Carl Zeiss AXIO Imager Z1 and the software used for image capturing was AxioVision Rel. 4.8.

The subject of a further experiment is HeLa cells. Description: Fluorescence study in fixed cells. The format is cell-based. The following applies: 0.5 and 1 μM, Hoechst as control. As to the method: HeLa cells are grown on the cover slip for about 24 hours in DMEM medium supplemented with 10% fetal bovine serum at about 37° C. in a humidified atmosphere containing 5% CO2 till 80% confluency is achieved. Then cells are fixed with 4% paraformaldehyde in PBS for 10 min. After rinsing twice with PBS, HeLa cells are treated separately with probe QCy-DT at various concentrations (0.5 μM and 1 μM) for 10 min at room temperature. Subsequently, cover slips are incubated with Hoechst 33258 at 10 μg/mL for nuclear staining. Fluorescence images are taken by Carl Zeiss Laser Scanning Microscope (LSM510 META).
In order to check its permeability, cellular uptake studies are carried out in live and fixed conditions of MCF-7 and HeLa cells, respectively. First, MCF-7 cells are incubated with probe QCy-DT (0.5 and 1 μM) without fixing, and live cell imaging is conducted using Carl Zeiss fluorescence microscope as described above. […] Next, HeLa cells are fixed and incubated with QCy-DT (0.5 and 1 μM) along with Hoechst as the control nuclear staining dye. […] Therefore, staining results obtained with live and fixed cells confirmed high cell permeability, efficiency (low staining concentration of 1 μM), and preferential targeting of cell nuclear DNA.

SMILES strings stand for the structures. Like-named read-outs stand apart in the source and are kept apart here.

`C[n+]1c(/C=C/c2ccc(O)c(/C=C/c3sc4ccccc4[n+]3C)c2)sc2ccccc21` [QCy-DT, quinone cyanine-dithiazole]: in the experiment on P. falciparum (8 μM), the parasite stage progression entry is “arrested in the trophozoite stage”. Moreover, the IC50 with P. falciparum (against malarial parasites, as printed in the description, read-out: inhibitory concentration (IC50)) was < 4 µM; with P. falciparum (early trophozoite stage, 40 h treatment, parasitemia count, read-out: IC50), < 4 µM. Further, the parasite staining entry in the experiment on P. falciparum strain 3D7 is given as “specifically stain the parasite nuclei”. For the same compound, in the experiment on HeLa cells, the nuclear staining entry was “selective staining of the cell nucleus, and remarkable co-localization with Hoechst dye”.
